Consider 4 compounds from ChEMBL document CHEMBL3621142, “Discovery and Evaluation of Clinical Candidate AZD3759, a Potent, Oral Active, Central Nervous System-Penetrant, Epidermal Growth Factor Receptor Tyrosine Kinase Inhibitor” (J Med Chem, 2015).

Structures are written as SMILES.

A short description of series [1]: Ratio of unbound AUC (0 to 7 hrs) in brain to blood of Han Wistar rat at 2 mg/kg, po by LC-MS/MS analysis. Particulars: for Kp uu: Han Wistar, brain and blood, read-out: K(p,uu,brain). It counts as ADME, organism-based.
A short description of series [2]: Elimination half life in Han Wistar rat at 2 mg/kg, po. The series is classed as ADME, organism-based. Particulars: in vivo, read-out: beta t1/2 (converted).
For series [3], the target named is Epidermal growth factor receptor (Homo sapiens, UniProt P00533, EX19DEL). The series can be described thus: Inhibition of EGFR exon19 deletion mutant phosphorylation in human PC9 cells. The series is classed as cell-based, PC-9.
Another series relates to MDR1 (P-gp). In words: Efflux ratio of permeability from basolateral to apical side over apical to basolateral side in MDCK2-MDR1 cells. The series is classed as ADME, cell-based, Canis lupus familiaris. Conditions: dog, MDCK-MDR1.
Series [4] in a line: (§1) AUC (0 to 7 hrs) in Han Wistar rat blood at 2 mg/kg, po by LC-MS/MS analysis. Conditions: Han Wistar, blood. Set-up: dose 2 mg/kg, time < 7 hr, route oral. It counts as ADME, organism-based.
A short description of series [5]: Permeability from apical to basolateral side in MDCK2-MDR1 cells. The series is classed as ADME, cell-based, Canis lupus familiaris, MDCK-II. Particulars: dog; for Papp A→B: MDCK-MDR1.
Series [6] relates to Rattus norvegicus. The series can be described thus: Volume of distribution at steady state in Han Wistar rat at 2 mg/kg, […]. The series is classed as ADME, organism-based. Conditions: in vivo.
A further series concerns the target Cytochrome P450 2C9 (Homo sapiens, UniProt P11712). In words: Inhibition of human CYP2C9. It counts as ADME.
The target in series [7] is Voltage-gated inwardly rectifying potassium channel KCNH2 (Homo sapiens, UniProt Q12809). In words: Inhibition of human ERG by patch clamp assay.
Series [8] can be described thus: Ratio of unbound AUC (0 to 7 hrs) in CSF to blood of Han Wistar rat at 2 mg/kg, po by LC-MS/MS analysis. It counts as ADME, organism-based. Particulars: for Kp uu: Han Wistar, CSF and blood.
The nature of series [9]: (§2) Fraction unbound in Han Wistar rat brain at 5 uM by equilibrium dialysis method. It counts as ADME, tissue-based. Conditions: Han Wistar, brain.
A short description of series [10]: Clearance in Han Wistar rat at 2 mg/kg, po. The series is classed as ADME, organism-based. Conditions: in vivo.
For a further series, the target named is Cytochrome P450 2D6 (Homo sapiens, UniProt P10635). The series can be described thus: Inhibition of human CYP2D6. The series is classed as ADME.
Series [11] in a line: (§3) AUC (0 to 7 hrs) in Han Wistar rat CSF at 2 mg/kg, po by LC-MS/MS analysis. It counts as ADME, organism-based, Cerebrospinal fluid. Set-up: time < 7 hr, dose 2 mg/kg, route oral. Conditions: Han Wistar, CSF.
A short description of series [12]: (§4) Fraction unbound in Han Wistar rat blood at 5 uM by equilibrium dialysis method. It counts as ADME, tissue-based. Particulars: Han Wistar.
Series [13] in a line: (§5) Oral bioavailability in Han Wistar rat at 2 mg/kg. It counts as ADME, organism-based. Particulars: Han Wistar, in vivo.
Series [14] is described as follows: (§6) AUC (0 to 7 hrs) in Han Wistar rat brain at 2 mg/kg, po by LC-MS/MS analysis. The series is classed as ADME, organism-based. Particulars: Han Wistar, brain. Set-up: dose 2 mg/kg, time < 7 hr, route oral.
In another series the target is Cytochrome P450 3A4 (Homo sapiens, UniProt P08684). In words: Inhibition of human CYP3A4. The series is classed as ADME.
In series [15] the target is Epidermal growth factor receptor (Homo sapiens, UniProt P00533, L858R). It counts as cell-based, H3255.
Series [16] is described as follows: Ratio of unbound AUC (0 to 24 hrs) in brain to blood of Han Wistar rat at 20 mg/kg, po by LC-MS/MS analysis. The series is classed as ADME, organism-based. Conditions: brain and blood, read-out: K(p,uu,brain).
Series [17] is described as follows: AUC (0 to 7 hrs) in Han Wistar rat brain at 20 mg/kg, po measured after 0.5 to 24 hrs by LC-MS/MS analysis. The series is classed as ADME, organism-based. Also on record: time < 7 hr, dose 20 mg/kg, route oral.
The next series has as its system BCRP. In words: Permeability from apical to basolateral side in BCRP transfected MDCK2 cells. Conditions: dog. It counts as ADME, cell-based, Canis lupus familiaris, MDCK-II.
A short description of series [18]: AUC (0 to 7 hrs) in Han Wistar rat blood at 20 mg/kg, po measured after 0.5 to 24 hrs by LC-MS/MS analysis. It counts as ADME, organism-based. Set-up: time < 7 hr, dose 20 mg/kg, route oral.
The nature of series [19]: Ratio of unbound AUC (0 to 24 hrs) in CSF to blood of Han Wistar rat at 20 mg/kg, po by LC-MS/MS analysis. The series is classed as ADME, organism-based. Conditions: CSF and blood.
Series [20] can be described thus: AUC (0 to 7 hrs) in Han Wistar rat CSF at 20 mg/kg, po measured after 0.5 to 24 hrs by LC-MS/MS analysis. It counts as ADME, organism-based, Cerebrospinal fluid. Also on record: time < 7 hr, dose 20 mg/kg, route oral.
A short description of series [21]: (§7) Volume of distribution at steady state in Han Wistar rat at 1 mg/kg, iv. It counts as ADME, organism-based. Conditions: Han Wistar, in vivo, read-out: Vdss.
Series [22] is described as follows: AUC(0 to 24 hrs) in Han Wistar rat at 5 mg/kg, po. It counts as ADME, organism-based. Set-up: dose 5 mg/kg, time < 24 hr, route oral. Particulars: in vivo.
Series [23] is described as follows: (§8) Elimination half life in Han Wistar rat at 1 mg/kg, iv. The series is classed as ADME, organism-based. Conditions: Han Wistar, in vivo, read-out: beta t1/2 (converted).
Series [24] in a line: Oral bioavailability in Han Wistar rat at 5 mg/kg. It counts as ADME, organism-based. Conditions: in vivo.
A short description of series [25]: AUC(0 to 24 hrs) in Han Wistar rat at 1 mg/kg, iv. The series is classed as ADME, organism-based. Also on record: time < 24 hr, dose 1 mg/kg, route intravenous. Particulars: in vivo.
The nature of series [26]: Clearance in Han Wistar rat at 1 mg/kg, iv. Particulars: in vivo. It counts as ADME, organism-based.
Series [27] in a line: Drug metabolism in rat hepatocytes assessed as piperazine oxidation. It counts as ADME, cell-based, Hepatocyte.
Series [28] in a line: Cmax in Han Wistar rat at 5 mg/kg, po. Particulars: in vivo. Also on record: dose 5 mg/kg, route oral. The series is classed as ADME, organism-based.
Series [29] is described as follows: Tmax in Han Wistar rat at 5 mg/kg, po. The series is classed as ADME, organism-based. Particulars: in vivo.
Series [30] deals with Rattus norvegicus. The series is described as §7. The series is classed as ADME, organism-based. Particulars: in vivo.
Series [31] relates to Blood. The description is as §1. Set-up: dose 2 mg/kg, time < 7 hr, route oral. It counts as ADME, organism-based. Conditions: in vivo, 7 h.
In series [32] the test system is Rattus norvegicus. The series is described as §8. The series is classed as ADME, organism-based. Conditions: in vivo.
The test system of series [33] is Rattus norvegicus. In words: AUC(0 to 24 hrs) in Han Wistar rat at 2 mg/kg, po. The series is classed as ADME, organism-based. Also on record: dose 2 mg/kg, time < 24 hr, route oral. Particulars: in vivo, 24 h.
Series [34] has as its system Brain. The series is described as §2. It counts as ADME, tissue-based. Conditions: 5 µM.
Another series relates to Cerebrospinal fluid. The series is described as §3. It counts as ADME, organism-based. Particulars: in vivo, 7 h. Also on record: time < 7 hr, dose 2 mg/kg, route oral.
Series [35] has as its system Blood. The series is described as §4. The series is classed as ADME, tissue-based. Conditions: 5 µM.
The test system of series [36] is Rattus norvegicus. The series is described as §5. Particulars: in vivo. It counts as ADME, organism-based.
Series [37] deals with Brain. The series is described as §6. The series is classed as ADME, organism-based. Set-up: dose 2 mg/kg, time < 7 hr, route oral. Conditions: in vivo, 7 h.

Epidermal growth factor receptor (Homo sapiens, UniProt P00533, L858R), sequence (P00533 25-1210 L858R limits assumed): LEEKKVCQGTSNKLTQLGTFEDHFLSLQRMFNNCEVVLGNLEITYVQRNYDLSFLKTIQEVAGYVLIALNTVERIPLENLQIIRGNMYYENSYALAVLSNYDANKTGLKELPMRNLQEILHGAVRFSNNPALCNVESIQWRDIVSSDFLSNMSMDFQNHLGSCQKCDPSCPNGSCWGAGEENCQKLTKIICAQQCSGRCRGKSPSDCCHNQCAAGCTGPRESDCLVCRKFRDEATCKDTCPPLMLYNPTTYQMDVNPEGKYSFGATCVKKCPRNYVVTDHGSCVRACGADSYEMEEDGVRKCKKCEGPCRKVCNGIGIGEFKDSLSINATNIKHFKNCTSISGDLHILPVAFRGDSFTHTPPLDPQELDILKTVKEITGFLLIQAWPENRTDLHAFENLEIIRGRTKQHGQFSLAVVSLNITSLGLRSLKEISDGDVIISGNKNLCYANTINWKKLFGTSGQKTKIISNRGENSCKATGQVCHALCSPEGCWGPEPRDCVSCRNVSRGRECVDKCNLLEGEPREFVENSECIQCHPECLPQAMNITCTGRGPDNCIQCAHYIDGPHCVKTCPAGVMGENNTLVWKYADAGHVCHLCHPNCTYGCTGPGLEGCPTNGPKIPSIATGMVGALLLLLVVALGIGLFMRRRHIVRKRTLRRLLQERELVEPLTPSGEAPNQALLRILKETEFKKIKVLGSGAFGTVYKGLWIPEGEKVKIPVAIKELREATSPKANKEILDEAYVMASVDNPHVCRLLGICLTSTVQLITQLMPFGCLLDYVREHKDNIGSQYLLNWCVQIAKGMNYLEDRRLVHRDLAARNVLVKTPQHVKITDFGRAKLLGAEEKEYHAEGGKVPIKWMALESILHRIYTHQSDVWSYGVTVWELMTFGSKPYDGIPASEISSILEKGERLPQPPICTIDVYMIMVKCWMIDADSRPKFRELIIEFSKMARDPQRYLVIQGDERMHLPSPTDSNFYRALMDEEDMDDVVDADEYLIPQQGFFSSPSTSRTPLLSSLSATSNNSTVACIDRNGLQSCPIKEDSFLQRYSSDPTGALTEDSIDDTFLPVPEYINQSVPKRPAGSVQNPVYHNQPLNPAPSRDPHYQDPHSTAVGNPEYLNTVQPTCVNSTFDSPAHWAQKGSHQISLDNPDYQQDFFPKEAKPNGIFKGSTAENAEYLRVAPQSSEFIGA
Cytochrome P450 3A4, sequence (P08684 whole entry): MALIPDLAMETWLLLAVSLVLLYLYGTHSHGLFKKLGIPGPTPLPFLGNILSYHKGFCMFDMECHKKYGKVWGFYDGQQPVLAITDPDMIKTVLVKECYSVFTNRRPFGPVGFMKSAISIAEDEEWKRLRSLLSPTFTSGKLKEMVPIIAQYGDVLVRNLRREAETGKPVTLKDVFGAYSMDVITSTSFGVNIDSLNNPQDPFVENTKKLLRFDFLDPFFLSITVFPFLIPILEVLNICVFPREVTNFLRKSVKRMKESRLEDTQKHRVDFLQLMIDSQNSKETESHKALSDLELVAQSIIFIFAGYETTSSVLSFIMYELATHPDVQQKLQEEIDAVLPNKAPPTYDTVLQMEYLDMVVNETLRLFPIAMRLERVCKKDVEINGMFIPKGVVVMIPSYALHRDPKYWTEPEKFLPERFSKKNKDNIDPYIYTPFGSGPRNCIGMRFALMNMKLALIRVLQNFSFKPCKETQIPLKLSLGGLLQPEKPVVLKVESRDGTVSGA
Voltage-gated inwardly rectifying potassium channel KCNH2, sequence (Q12809 whole entry): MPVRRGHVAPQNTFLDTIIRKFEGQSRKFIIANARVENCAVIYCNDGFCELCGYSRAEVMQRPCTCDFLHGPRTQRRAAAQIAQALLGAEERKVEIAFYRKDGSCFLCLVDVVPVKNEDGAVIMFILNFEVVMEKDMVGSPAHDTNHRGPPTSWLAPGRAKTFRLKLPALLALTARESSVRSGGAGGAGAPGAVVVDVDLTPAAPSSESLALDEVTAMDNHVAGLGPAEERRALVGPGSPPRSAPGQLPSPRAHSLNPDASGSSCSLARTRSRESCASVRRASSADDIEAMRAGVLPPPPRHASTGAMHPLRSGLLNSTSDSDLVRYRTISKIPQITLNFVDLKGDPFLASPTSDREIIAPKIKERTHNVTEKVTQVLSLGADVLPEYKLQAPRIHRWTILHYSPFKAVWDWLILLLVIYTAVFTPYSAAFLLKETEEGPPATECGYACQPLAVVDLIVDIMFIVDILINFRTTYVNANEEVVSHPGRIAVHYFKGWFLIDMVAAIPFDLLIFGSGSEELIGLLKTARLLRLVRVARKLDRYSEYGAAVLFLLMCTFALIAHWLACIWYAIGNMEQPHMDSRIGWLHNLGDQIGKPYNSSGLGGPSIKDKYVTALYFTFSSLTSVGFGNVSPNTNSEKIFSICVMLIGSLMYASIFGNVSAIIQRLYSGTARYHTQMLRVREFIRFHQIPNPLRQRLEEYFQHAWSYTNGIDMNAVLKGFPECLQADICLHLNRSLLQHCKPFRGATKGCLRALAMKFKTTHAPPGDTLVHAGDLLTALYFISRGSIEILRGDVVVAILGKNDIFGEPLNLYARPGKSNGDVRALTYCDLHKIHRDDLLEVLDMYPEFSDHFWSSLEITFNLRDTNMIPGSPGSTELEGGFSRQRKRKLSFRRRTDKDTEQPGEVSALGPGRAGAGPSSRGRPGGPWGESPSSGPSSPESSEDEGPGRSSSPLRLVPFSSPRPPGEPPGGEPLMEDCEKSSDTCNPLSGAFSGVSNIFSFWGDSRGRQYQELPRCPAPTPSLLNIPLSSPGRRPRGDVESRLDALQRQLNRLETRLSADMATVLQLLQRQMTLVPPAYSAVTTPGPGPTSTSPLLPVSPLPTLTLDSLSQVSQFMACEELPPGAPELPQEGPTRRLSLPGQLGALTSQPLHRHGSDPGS
Cytochrome P450 2C9, sequence (P11712 whole entry): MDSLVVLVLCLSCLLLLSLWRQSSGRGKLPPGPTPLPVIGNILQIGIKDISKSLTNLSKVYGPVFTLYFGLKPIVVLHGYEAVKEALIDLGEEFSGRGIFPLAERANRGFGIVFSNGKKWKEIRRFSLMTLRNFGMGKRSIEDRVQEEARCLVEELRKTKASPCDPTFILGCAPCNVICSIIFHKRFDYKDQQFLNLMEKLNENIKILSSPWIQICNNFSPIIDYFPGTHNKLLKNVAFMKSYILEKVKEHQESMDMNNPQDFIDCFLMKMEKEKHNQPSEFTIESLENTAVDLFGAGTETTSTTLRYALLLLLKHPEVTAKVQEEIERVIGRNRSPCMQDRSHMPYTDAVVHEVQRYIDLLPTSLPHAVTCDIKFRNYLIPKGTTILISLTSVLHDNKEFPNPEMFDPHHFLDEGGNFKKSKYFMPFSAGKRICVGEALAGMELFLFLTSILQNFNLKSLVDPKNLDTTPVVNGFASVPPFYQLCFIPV
Epidermal growth factor receptor (Homo sapiens, UniProt P00533, EX19DEL), sequence (P00533 whole entry, looked up, stated change not applied): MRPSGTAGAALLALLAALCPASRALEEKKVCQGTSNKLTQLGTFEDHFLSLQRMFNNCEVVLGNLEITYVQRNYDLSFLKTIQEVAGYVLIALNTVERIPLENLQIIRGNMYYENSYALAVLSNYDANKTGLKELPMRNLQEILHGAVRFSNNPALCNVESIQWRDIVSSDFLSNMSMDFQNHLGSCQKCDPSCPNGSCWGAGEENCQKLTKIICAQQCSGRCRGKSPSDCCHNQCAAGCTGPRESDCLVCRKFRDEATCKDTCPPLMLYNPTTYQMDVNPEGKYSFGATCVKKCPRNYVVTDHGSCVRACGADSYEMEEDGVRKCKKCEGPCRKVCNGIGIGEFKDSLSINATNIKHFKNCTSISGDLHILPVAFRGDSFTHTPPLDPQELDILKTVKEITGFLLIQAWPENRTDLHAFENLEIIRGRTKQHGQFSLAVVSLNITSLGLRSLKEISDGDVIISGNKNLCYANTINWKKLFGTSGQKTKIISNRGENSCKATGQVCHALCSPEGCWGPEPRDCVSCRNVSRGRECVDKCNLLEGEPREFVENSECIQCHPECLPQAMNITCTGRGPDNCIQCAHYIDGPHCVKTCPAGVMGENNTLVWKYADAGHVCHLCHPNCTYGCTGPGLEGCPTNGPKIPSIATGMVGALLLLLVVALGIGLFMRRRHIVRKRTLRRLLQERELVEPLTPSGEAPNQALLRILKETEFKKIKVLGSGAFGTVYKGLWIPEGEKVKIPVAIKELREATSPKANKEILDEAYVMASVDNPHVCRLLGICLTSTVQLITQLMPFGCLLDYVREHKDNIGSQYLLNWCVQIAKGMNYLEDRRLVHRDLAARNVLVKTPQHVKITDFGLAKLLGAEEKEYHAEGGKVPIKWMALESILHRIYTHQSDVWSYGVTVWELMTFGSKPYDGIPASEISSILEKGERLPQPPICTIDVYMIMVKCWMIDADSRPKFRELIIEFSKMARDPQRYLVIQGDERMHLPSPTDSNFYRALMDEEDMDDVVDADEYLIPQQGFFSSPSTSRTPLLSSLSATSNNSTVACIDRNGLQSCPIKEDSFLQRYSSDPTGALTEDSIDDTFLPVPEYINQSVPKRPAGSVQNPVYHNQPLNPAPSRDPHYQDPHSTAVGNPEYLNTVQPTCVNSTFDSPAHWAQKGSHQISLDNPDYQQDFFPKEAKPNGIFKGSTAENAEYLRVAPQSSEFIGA
Cytochrome P450 2D6, sequence (P10635 whole entry): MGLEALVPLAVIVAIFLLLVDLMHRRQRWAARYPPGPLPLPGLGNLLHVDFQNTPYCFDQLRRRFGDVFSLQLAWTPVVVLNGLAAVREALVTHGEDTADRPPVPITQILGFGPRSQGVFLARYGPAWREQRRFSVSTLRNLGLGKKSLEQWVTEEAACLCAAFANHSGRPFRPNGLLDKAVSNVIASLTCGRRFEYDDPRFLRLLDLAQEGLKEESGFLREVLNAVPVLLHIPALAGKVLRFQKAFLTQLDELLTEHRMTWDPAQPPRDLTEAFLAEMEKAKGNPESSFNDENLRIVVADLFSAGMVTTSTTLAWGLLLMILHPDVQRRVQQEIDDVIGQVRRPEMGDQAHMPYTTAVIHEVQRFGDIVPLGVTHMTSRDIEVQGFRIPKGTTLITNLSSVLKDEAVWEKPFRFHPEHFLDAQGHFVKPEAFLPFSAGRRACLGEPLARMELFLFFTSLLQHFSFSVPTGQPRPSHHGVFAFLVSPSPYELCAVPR

As to `COc1cc2ncnc(Nc3cccc(Cl)c3F)c2cc1CN1CCOCC1`, the Kp uu was 0.47 in series [1] and 0.76 in series [8]. Moreover, the half-life in [2] was 66 min. The IC50 is 3.8 nM in series [3]; > 10 µM at Cytochrome P450 2C9; 17 µM in series [7]; > 10 µM at Cytochrome P450 2D6; > 10 µM at Cytochrome P450 3A4; 6.6 nM in [15]. Further, the efflux ratio with MDR1 (P-gp) is 0.33. The AUC(0-t) at 7 h was found to be 0.834 µM·h in series [4], 0.05 µM·h in series [11] and 1.01 µM·h in [14]. Besides, the Papp A→B in [5] worked out at 32 ×10⁻⁶ cm/s. For the same compound, in the series on Rattus norvegicus [6], the Vdss was 2.8 L/kg. Besides, the fraction unbound at 5 µM in [9] worked out at 0.03; in series [12], 0.078. For the same compound, in [10], the CL/F was 59 mL/min/kg. The compound further returned a bioavailability in series [13] of 44%.
`COc1cc2ncnc(Nc3ccc(F)c(Cl)c3)c2cc1OCCCN1CCOCC1` [GEFITINIB]: the Kp uu in [16] was found to be 0.021; in series [19] it was 0.088. Besides, the Papp A→B worked out at 8.3 ×10⁻⁶ cm/s in series [5] and 4.2 ×10⁻⁶ cm/s with BCRP. In addition, the figures for the AUC(0-t) at 7 h in series [17], in series [18] and in series [20] were 5.65 µM·h, 31.9 µM·h and 0.093 µM·h, respectively. The fraction unbound at 5 µM in series [9] is 0.0039.
For `COc1cc2ncnc(Nc3cccc(Cl)c3F)c2cc1OC(=O)N1CCN(C)CC1`, the figures for the Kp uu in series [1] and in series [8] were 0.34 and 0.52, respectively. Besides, the Vd in series [21] turned out to be 1.8 L/kg. For the same compound, the AUC(0-t) at 24 h in series [22] amounted to 3.91 µM·h; in [25], 1.71 µM·h. Besides, the efflux ratio with MDR1 (P-gp) is 0.37. The AUC(0-t) at 7 h in series [4] was found to be 0.722 µM·h; in series [11] it was 0.031 µM·h; in series [14], 0.825 µM·h. In series [5], this compound returned a Papp A→B of 28 ×10⁻⁶ cm/s. Besides, in series [23], the half-life was 156 min. In addition, the bioavailability in [24] is 45%. Moreover, the fraction unbound at 5 µM in series [9] came out at 0.025; in [12], 0.084. In series [26], this compound yielded a clearance of 22 mL/min/kg. Also, the Drug metabolism entry in [27] is “metabolite_detected”. In addition, in series [28], the highest level (Cmax) was 2020 nM. In [29], the Tmax came out at 15 min. For the same compound, the midpoint of inhibition in [15], the IC50, lay at 5 nM.
As to `COc1cc2ncnc(Nc3cccc(Cl)c3F)c2cc1OC(=O)N1CCN(C)C2CC21` (stereo in doubt; 1j), the “K(p,uu,brain)” value in [1] (brain) turned out to be 0.74. This compound also came in with a Vdss in the series on Rattus norvegicus [30] of 2.5 L/kg. Moreover, the area under the curve (AUC) in the series on Blood [31] was 740 nM·h; with Rattus norvegicus [33], 2315 nM·h; in the series with Cerebrospinal fluid, 28 nM·h; with Brain [37], 727 nM·h. In series [5] (mdck-ii), the Papp is reported as 76 ×10⁻⁶ cm/s. In the series with Rattus norvegicus [32], the “beta t1/2” value was 1.3 h. The “K(p,uu,CSF)” value in [8] (csf) stood at 1.6. The values for the Fu in the series on Brain [34] and with Blood [35] were 1.8% and 2.4%, respectively. In addition, the F in the series on Rattus norvegicus [36] was 84%.
